Values quoted from earlier work as cited in paper PMC9499927, “Peptidomimetics designed to bind to RAS effector domain are promising cancer therapeutic compounds” (Scientific Reports, 2022).

Experiments:
[1] = tested on: Ras-binding domain of multiple RAS effectors
Excerpt: (§1) The unclear results obtained using these experimental approaches has led the scientific community to refocus on the search for direct RAS inhibitors. With this objective, two strategies are currently being followed: the first involves searching for molecules that block the interaction with non-effector RAS proteins that bind to the HVR and/or the allosteric lobe and which modulate RAS activity; and the second is looking for drugs that inhibit the binding of RAS with its effectors[20],[21]. In this context, Rigosertib, a compound that binds to the Ras-binding domain of multiple RAS effector ...

[2] = tested on: KRAS-mutant colon and pancreatic cancer mouse models
Excerpt: as §1

[3] = tested on: patients with previously untreated metastatic pancreatic cancer; conditions: randomized phase 2/3 trial
Excerpt: as §1

## COc1cc(OC)c(/C=C/S(=O)(=O)Cc2ccc(OC)c(NCC(=O)O)c2)c(OC)c1 [Rigosertib]
[1]
  Binding: binds to the Ras-binding domain of multiple RAS effectors
[2]
  Tumour growth inhibition: proven to inhibit tumour growth
[3]
  Clinical benefit of addition to gemcitabine: no benefit
